Laboratory results as given in ChEMBL document CHEMBL1139381 (J Med Chem, 2009).

Legend:
Plasmodium falciparum [1] = assay: Antimalarial activity after 72 hrs against chloroquine-sensitive Plasmodium falciparum D10 infected human A+ erythrocytes in Makler LDH reporter assay; assay type: functional, organism-based; settings: D10, 72 h
Plasmodium falciparum [2] = assay: Antimalarial activity after 72 hrs against chloroquine-resistant Plasmodium falciparum W2 infected human A+ erythrocytes by Makler LDH reporter assay; assay type: functional, organism-based; settings: W2, 72 h
Plasmodium falciparum [3] = assay: Antimalarial activity after 24 hrs against chloroquine-sensitive Plasmodium falciparum 3D7 infected human A+ erythrocytes by [3H]hypoxanthine uptake; assay type: functional, organism-based
Plasmodium falciparum [4] = assay: Antimalarial activity after 24 hrs against chloroquine-resistant synchronous Plasmodium falciparum K1 infected human A+ erythrocytes by [3H]hypoxanthine uptake; assay type: functional, organism-based
Plasmodium falciparum [5] = assay: Antimalarial activity after 48 hrs against chloroquine-sensitive Plasmodium falciparum NF54 infected human A+ erythrocytes by [3H]hypoxanthine uptake; assay type: functional, organism-based
Plasmodium falciparum [6] = assay: Antimalarial activity after 48 hrs against chloroquine-resistant asynchronous Plasmodium falciparum K1 infected human A+ erythrocytes by [3H]hypoxanthine uptake; assay type: functional, organism-based
[7] = Cytotoxicity against mouse NSO cells by MTT assay; assay type: cell-based; settings: read-out: TC50 (the source's name)
[8] = Cytotoxicity against human Daudi cells by MTT assay; assay type: cell-based; settings: read-out: TC50 (the source's name)
[9] = Cytotoxicity against PHA-stimulated human lymphocytes by MTT assay; assay type: cell-based, Lymphocyte; settings: read-out: TC50 (the source's name)
Plasmodium chabaudi [10] = assay: Antimalarial activity as reduced parasitaemia against Plasmodium chabaudi AS infected CD1 mice (Mus musculus) at 50 mg/kg/day peroral dose; assay type: functional; set-up: scale not given: the % may be the effect or the level left; settings: route oral
Plasmodium berghei [11] = assay: Antimalarial activity as reduced parasitaemia against Plasmodium berghei ANKA infected CD1 mice (Mus musculus) at 30 mg/kg/day intraperitoneal dose over 4 days; assay type: functional; set-up: scale not given: the % may be the effect or the level left
[12] = biological target: T1, Histidine-rich protein PFHRP-II (Plasmodium falciparum) (UniProt P05227); assay: Inhibition of beta-hematin assessed as molar equivalents at pH 2.7 after 18 hrs by spectrophotometric microassay relative to hemin; assay type: functional
T1 sequence (whole entry): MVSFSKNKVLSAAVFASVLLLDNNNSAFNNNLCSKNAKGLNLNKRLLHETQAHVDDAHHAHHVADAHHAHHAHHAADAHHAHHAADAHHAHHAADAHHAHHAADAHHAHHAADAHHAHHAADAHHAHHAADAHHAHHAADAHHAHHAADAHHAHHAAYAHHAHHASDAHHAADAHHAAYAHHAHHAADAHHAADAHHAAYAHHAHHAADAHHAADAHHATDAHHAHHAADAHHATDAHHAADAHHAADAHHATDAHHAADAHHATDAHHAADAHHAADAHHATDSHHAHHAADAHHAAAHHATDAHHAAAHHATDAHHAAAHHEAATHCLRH

[13] = Cytotoxicity against human KB cells by MTT assay; assay type: cell-based; settings: read-out: TC50 (the source's name)
[14] = Apparent volume of distribution in CD-COBS rat at 5 mg/kg, iv; assay type: ADME, organism-based; set-up: dose 5 mg/kg, route intravenous; settings: in vivo
[15] = Elimination half life in CD-COBS rat at 5 mg/kg, iv; assay type: ADME, organism-based; set-up: dose 5 mg/kg, route intravenous; settings: in vivo
Plasmodium berghei [16] = assay: Antimalarial activity as reduced parasitaemia against Plasmodium berghei ANKA infected CD1 mice (Mus musculus) at 150 mg/kg/day oral dose over 4 days; set-up: scale not given: the % may be the effect or the level left
Plasmodium berghei [17] = assay: Antimalarial activity as reduced parasitaemia against Plasmodium berghei ANKA infected CD1 mice (Mus musculus) at 50 mg/kg/day peroral dose over 4 days; assay type: functional; set-up: scale not given: the % may be the effect or the level left; settings: route oral
Plasmodium berghei [18] = assay: Antimalarial activity as increased survival against Plasmodium berghei ANKA infected CD1 mice (Mus musculus) at 50 mg/kg/day peroral dose over 4 days; assay type: functional; settings: route oral
[19] = Ratio of drug level in blood to plasma of CD-COBS rat at 5 mg/kg, iv; assay type: ADME, organism-based; set-up: dose 5 mg/kg, route intravenous; settings: blood and plasma
Rattus norvegicus = assay: AUC (0 to t) in CD-COBS rat at 50 mg/kg, po after 60 mins; assay type: ADME, organism-based, Plasma; set-up: time < 1 hr, dose 50 mg/kg, route oral; settings: in vivo, 1 h
[20] = Cmax in CD-COBS rat at 50 mg/kg, po after 60 mins; assay type: ADME, organism-based; set-up: time < 1 hr, dose 50 mg/kg, route oral; settings: in vivo, read-out: AUC
Mus musculus = assay: AUC (0 to t) in CD1 albino mouse at 50 mg/kg, po after 60 mins; assay type: ADME, organism-based, Plasma; set-up: time < 1 hr, dose 50 mg/kg, route oral; settings: in vivo, 1 h
[21] = Cmax in CD1 albino mouse at 50 mg/kg, po after 60 mins; assay type: ADME, organism-based; set-up: dose 50 mg/kg, route oral; settings: in vivo
Liver [22] = assay: AUC (0 to t) in CD1 albino mouse liver at 50 mg/kg, po after 180 mins; assay type: ADME, organism-based; set-up: time < 3 hr, dose 50 mg/kg, route oral; settings: in vivo, 3 h
Liver [23] = assay: AUC (0 to t) in CD-COBS rat liver at 50 mg/kg, po after 180 mins; assay type: ADME, organism-based; set-up: time < 3 hr, dose 50 mg/kg, route oral; settings: in vivo, 3 h
[24] = Ratio of drug level in liver to plasma of CD-COBS rat at 50 mg/kg, po after 180 mins; assay type: ADME, organism-based; set-up: dose 50 mg/kg, route oral; settings: liver and plasma
[25] = Ratio of drug level in liver to plasma of CD1 albino mouse at 50 mg/kg, po after 180 mins; assay type: ADME, organism-based; set-up: dose 50 mg/kg, route oral; settings: liver and plasma
[26] = Liver concentration in CD-COBS rat at 50 mg/kg, po after 180 mins
[27] = Liver concentration in CD1 albino mouse at 50 mg/kg, po after 180 mins
Plasmodium chabaudi [28] = assay: Antimalarial activity as reduced parasitaemia against Plasmodium chabaudi AS infected CD1 mice (Mus musculus) at 10 mg/kg/day peroral dose over 4 days; assay type: functional; set-up: scale not given: the % may be the effect or the level left; settings: route oral
Plasmodium berghei [29] = assay: Antimalarial activity as increased survival against Plasmodium berghei ANKA infected CD1 mice (Mus musculus) at 10 mg/kg/day peroral dose over 4 days; assay type: functional; settings: route oral

| SMILES | IC50 (Plasmodium falciparum [1]) | IC50 (Plasmodium falciparum [2]) | IC50 (Plasmodium falciparum [3]) | IC50 (Plasmodium falciparum [4]) | IC50 (Plasmodium falciparum [5]) | IC50 (Plasmodium falciparum [6]) | Activity (Plasmodium chabaudi [10]) | other results |
| --- | --- | --- | --- | --- | --- | --- | --- | --- |
| COc1ccc2nc3cc(Cl)ccc3c(NC(c3ccc(Cl)cc3)c3ccc(CN4CCCC4)cc3)c2c1 (racemic) | 49 nM | 59 nM | 1 nM | 8 nM | 19 nM | 20 nM | 99.9% | CC50 [7]: 11100 nM; CC50 [8]: 11100 nM; CC50 [9]: 16600 nM |
| COc1ccc2nccc(NC(c3ccc(CN4CCOCC4)cc3)c3cccc(Cl)c3)c2c1 (racemic) | 86 nM | 127 nM | – | – | 43 nM | 67 nM | – | – |
| Clc1ccc([C@](c2ccccc2)(c2ccc(CN3CCCC3)cc2)n2ccnc2)cc1 | 130 nM | 59 nM | 7 nM | 5 nM | – | – | 94.8% | Activity (Plasmodium berghei [11]): 37.6%; Ratio [12]: 2.5 |
| COc1ccc2nccc(NC(c3ccc(Cl)cc3)c3ccc(CN4CCCC4)cc3)c2c1 (racemic) | 57 nM | 82 nM | 8 nM | 60 nM | 32 nM | 32 nM | – | CC50 [13]: 8500 nM |
| Clc1ccc(C(Nc2ccnc3cc(Cl)ccc23)c2ccc(CN3CCCC3)cc2)cc1 (racemic) | 46 nM | 72 nM | 3.7 nM | 9 nM | 13 nM | 14 nM | 99.5% | CC50 [7]: 8600 nM; CC50 [8]: 8600 nM; CC50 [9]: 17300 nM; CC50 [13]: 19600 nM; Vd [14]: 40 L/kg; half-life [15]: 0.733 h |
| Clc1ccc(C(Nc2ccnc3cc(Cl)ccc23)c2ccc(CN3CCOCC3)cc2)cc1 (racemic) | 87 nM | 84 nM | – | – | 19 nM | 21 nM | – | – |
| COc1ccc2nccc(NC(c3ccc(CN4CCCC4)cc3)c3cccc(Cl)c3)c2c1 (racemic) | 40 nM | 55 nM | – | – | 39 nM | 65 nM | – | – |
| FC(F)(F)c1ccc2c(NC(c3ccc(CN4CCOCC4)cc3)c3cccc(Cl)c3)ccnc2c1 (racemic) | 234 nM | 304 nM | – | – | – | – | – | – |
| COc1ccc2nccc(NC(c3ccc(Cl)cc3)c3ccc(CN4CCOCC4)cc3)c2c1 (racemic) | 67 nM | 65 nM | – | – | 33 nM | 54 nM | – | – |
| FC(F)(F)c1ccc2c(NC(c3ccc(Cl)cc3)c3ccc(CN4CCCC4)cc3)ccnc2c1 (racemic) | 61 nM | 90 nM | – | 30 nM | 33 nM | 20 nM | 99.6% | CC50 [7]: 12100 nM; CC50 [8]: 14100 nM; CC50 [9]: 24200 nM; CC50 [13]: 5500 nM |
| Clc1ccccc1C(c1ccccc1)(c1ccccc1)n1ccnc1 [CLOTRIMAZOLE] | – | – | – | – | – | – | 6% | Activity (Plasmodium berghei [16]): 28.3% |
| Clc1cccc(C(Nc2ccnc3cc(Cl)ccc23)c2ccc(CN3CCCC3)cc2)c1 (racemic) | 21 nM | 22 nM | 24 nM | 65 nM | 12 nM | 16 nM | 98% | CC50 [7]: 23800 nM; CC50 [8]: 34600 nM; CC50 [9]: 54100 nM; Activity (Plasmodium berghei [17]): 98%; Survival (Plasmodium berghei [18]): 18 days; Ratio [12]: 1.33; Vd [14]: 48 L/kg; half-life [15]: 3 h; blood plasma ratio [19]: 1.1; AUC (Rattus norvegicus): 422 ng·h/mL; Cmax [20]: 180 ng/mL; AUC (Mus musculus): 725 ng·h/mL; Cmax [21]: 330 ng/mL; AUC (Liver [22]): 7061 µg/g; AUC (Liver [23]): 2945 µg/g; Kp at 3 h [24]: > 100; Kp at 3 h [25]: > 100; concentration at 3 h [26]: 30500 ng/g; concentration at 3 h [27]: 52200 ng/g |
| FC(F)(F)c1cc(NC(c2ccc(Cl)cc2)c2ccc(CN3CCCC3)cc2)c2cccc(C(F)(F)F)c2n1 (racemic) | 1240 nM | 1370 nM | 100 nM | 450 nM | – | – | – | CC50 [13]: 213000 nM |
| Clc1ccc(C(Nc2ccnc3cc(Cl)ccc23)(c2ccc(Cl)cc2)c2ccc(CN3CCCC3)cc2)cc1 | 48 nM | 56 nM | – | – | 16 nM | 28 nM | – | – |
| Clc1ccc(C(Nc2ccnc3cc(Cl)ccc23)(c2ccccc2)c2ccc(CN3CCCC3)cc2)cc1 (racemic) | 40 nM | 51 nM | 3 nM | 22 nM | – | – | 99.9% | – |
| Clc1cccc(C(Nc2ccnc3cc(Cl)ccc23)c2ccc(CN3CCOCC3)cc2)c1 (racemic) | 142 nM | 220 nM | – | – | 43 nM | 62 nM | – | – |
| COc1ccc2nc3cc(Cl)ccc3c(NC(c3ccc(Cl)cc3)(c3ccc(Cl)cc3)c3ccc(CN4CCCC4)cc3)c2c1 | 143 nM | 149 nM | – | – | 135 nM | 199 nM | – | – |
| CCN(CC)CCCC(C)Nc1ccnc2cc(Cl)ccc12 (stereo not given) [CHLOROQUINE] | – | – | – | – | – | – | – | CC50 [7]: 14900 nM; CC50 [8]: 16700 nM; CC50 [9]: 18600 nM; Activity (Plasmodium chabaudi [28]): 99.9%; Survival (Plasmodium berghei [29]): 16.3 days |
